Format in all cases: functional
Test [1] has as its system Botrytis cinerea. Kind of test: Antifungal activity against Botrytis cinerea assessed as inhibition of mycelium growth.
Test [2] relates to Phytophthora citrophthora. Kind of test: Antifungal activity against Phytophthora citrophthora assessed as inhibition of mycelium growth.
For test [3], the system named is Phytophthora cinnamomi. Nature of the test: Antifungal activity against Phytophthora cinnamomi assessed as inhibition of mycelium growth.
Test [4] concerns Pyricularia oryzae. Nature of the test: Antifungal activity against Pyricularia oryzae assessed as inhibition of mycelium growth.
Test [5] deals with Alternaria alternata. Kind of test: Antifungal activity against Alternaria alternata assessed as inhibition of mycelium growth.
The test system of test [6] is Ustilago nuda. Kind of test: Antifungal activity against Ustilago nuda assessed as inhibition of mycelium growth.
The subject of test [7] is Phytopythium vexans. Nature of the test: Antifungal activity against Pythium vexans assessed as inhibition of mycelium growth.
Test [8] has as its system Oculimacula yallundae. Nature of the test: Antifungal activity against Pseudocercosporella herpotrichoides assessed as inhibition of mycelium growth.
The test system of test [9] is Fusarium. Kind of test: Antifungal activity against Fusarium roseum assessed as inhibition of mycelium growth.
Test [10] has as its system Rhizoctonia solani. Nature of the test: Antifungal activity against Rhizoctonia solani assessed as inhibition of mycelium growth.
Test [11] has as its system Globisporangium rostratum. Nature of the test: Antifungal activity against Pythium rostratum assessed as inhibition of mycelium growth.
Test [12] has as its system Parastagonospora nodorum. Kind of test: Antifungal activity against Septoria nodorum assessed as inhibition of mycelium growth.
Test [13] has as its system Helminthosporium. Nature of the test: Antifungal activity against Helminthosporium gramineum assessed as inhibition of mycelium growth.

The source of these data is ChEMBL document CHEMBL1148098, “Neosiphoniamolide A, a novel cyclodepsipeptide, with antifungal activity from the marine sponge Neosiphonia superstes” (1995).

≈ marks a conversion by molar mass, not a printed value.

In general, IC90 refers to the concentration at which the effect reaches the 90% level. With `C/C1=C\[C@H](C)C[C@H](C)OC(=O)[C@H](C(C)C)NC(=O)[C@@H](Cc2ccc(O)c(I)c2)N(C)C(=O)CNC(=O)[C@@H](C)C1` [NEOSIPHONIAMOLIDE A], the IC90 in test [1] was above 5 µg/mL; in [2], above 5 µg/mL; in test [3], above 5 µg/mL; in test [4], 5 µg/mL (≈ 7.63 µM); in test [5] it was above 5 µg/mL; in test [6], above 5 µg/mL. Moreover, the IC90 in test [7], in test [8], in [9], in test [10], in test [11] and in test [12] was above 5 µg/mL throughout. Moreover, in test [13], the IC90 came out at 5 µg/mL (≈ 7.63 µM).
Take `CO[C@H]1CC2=CC(=O)O[C@@H]([C@H](C)[C@@H](OC)C[C@H](OC)/C=C/[C@H](C)[C@@H](O)C[C@@H](OC)/C=C/[C@H](C)[C@@H]([C@@H](C)[C@@H](OC)[C@@H](C)CCC(=O)[C@H](C)[C@@H](C/C=C/N(C)C=O)OC)OC(=O)/C=C/C=C(/C)C1)[C@H]2O` [SPHINXOLIDE B]: the IC90 in [1], in test [2], in [3], in [4], in test [5] and in [6] was below 2 µg/mL in each case. Also, the IC90 in test [7], in [8], in test [9], in [10], in test [11] and in test [12] was below 2 µg/mL in each case. Besides, in test [13], the IC90 is below 2 µg/mL.
